Converted amounts (≈) assume the structure as drawn. “And” between values parts separate entries of the source, which are not always exact repeats. Equal values may be shown once. Where a name gives a salt, the structure may show the parent alone.
Experiments:
Antibody-1B = assay: Competitive ELISA for pyrrolidinophenones, Antibody-1B with Tracer-1 (Example 10); assay type: binding, sheep; conditions: Antibody-1B coated at 2.5 μg/ml, Tracer-1 at 1/128k; for IC50 / % Cross-Reactivity: Table 2; for % Cross-Reactivity: relative to α-PVP = 100
Procedure: The purified polyclonal antibody from Example 9 (Antibody-1B) was immobilised on a 96 well ELISA plate at 2.5 μg/ml in 10 mM TRIS buffer, pH 8.5 overnight at 4° C. The assay is based on competition for binding sites of a polyclonal antibody between HRP tracer (Tracer-1) and α-PVP or potential cross-reactants. The plate was washed (×3) with TBST (Tris-Buffered Saline/Tween solution) and the calibrator (α-PVP) or potential cross reactants added (50 μl per well), followed by HRP tracer (Tracer-1) (75 μl/well) to the appropriate wells. The plates were then incubated for 60 minutes at 25° C. They were then subjected to 2 quick wash cycles using TBST, followed by 4×2 minute wash cycles. 125 μl of signal (TMB) was then added to each well for 20 mins at room temperature in the dark. The reaction was stopped by the addition of 125 μl of 0.2 M sulphuric acid per well and the plates read immediately at 450 nm. Calibration curves were generated using α-PVP and these were used to determine the sensitivity and specificity of the immunoassay for potential cross-reactants. The data was inputted to a computer program called KC Junior (Biotek). It gives a 4 parameter fit curve and allows the calculation of concentrations between the standard runs. This program is used to calculate the IC50 values by dividing the 0 ng/ml optical density (OD) value by 2 and obtaining the concentration value from the curve for this OD. The results of this study are presented in Tables 1 and 2, cross-reactivity being calculated according to the following formula: % CR=[…]/IC50 CR×100 wherein % CR is the percentage cross-reactivity, IC50 α-PVP is the concentration of α-PVP which causes 50% displacement of signal and IC50 CR is the concentration of potential cross-reactant that causes 50% displacement of signal.
Antibody-1B (Example 9) used to generate the data in the tables below was raised from Immunogen-1B (Example 7) and the HRP tracer (Tracer-1) was prepared as in Example 8. All of the compounds in Table 2 are commercially available from suppliers such as Cayman Chemical (Ann Arbor, Mich., USA).

α-PVP antibody = assay: α-PVP/MDPV ELISA kit validation assay (Example 11); assay type: binding; conditions: for % Cross-Reactivity: α-PVP/MDPV ELISA kit specificity, relative to α-PVP = 100, Table 10; for % CR: calculated with reference to the standard of that run; for Reactant IC50: standard concentration which produced 50% B/B0 in that run
Procedure: A microtitre plate was precoated with α-PVP antibody. α-PVP (antigen), if present in the sample competes with the horseradish peroxidase labelled α-PVP (enzyme labelled antigen) for a limited number of antibody sites on the microtitre plate. After incubation at room temperature to allow a competition reaction to take place, the microtitre plate was washed to remove excess reagents. The enzyme substrate was added. After an incubation period to allow maximum colour development, the colour reaction was stopped by the addition of acid. This produces a colour change from blue to yellow, and the absorbances are read at 450 nm. A standard curve was then constructed to determine the α-PVP concentration in the sample.
2. Urine samples were diluted 1:50 with diluent (I.e. 10 μl sample+490 μl diluent).
• 1. Whole blood samples were diluted 1:50 with diluent (i.e. 10 μl sample+490 μL diluent). • 2. The sample was mixed gently by pipetting without the formation of foam. Procedure
The assay was performed in duplicate. The layout of Table 4 was used where each box represents 2 wells:
a) Table 5 details what was pipetted into the appropriate wells of the microtitre plate:
b) The microtitre plate was gently tapped from side to side for a few seconds. c) The microtitre plate was covered with a plate sealer before incubating for 30 minutes at room temperature (+15° C. to +25° C.) in the dark. d) The plate was inverted and the liquid tapped out liquid. e) The plate was washed 6 times with diluted wash buffer (ensuring all wells were filled), over a 10-15 minute period. After the final wash the liquid was discarded liquid and the plate was tapped onto lint free tissue paper until completely dry. f) Immediately after washing, one 125 μl shot of substrate was pipetted into each well using a multichannel pipette. The microtitre plate was gently tapped from side to side and incubated for 20±2 minutes at room temperature (+15 to +25° C.) in the dark. g) The colour reaction was stopped by the addition of 100 μl of stop solution per well. A colour change from blue to yellow resulted. h) The optical density was measured at 450 nm within 10 minutes of stopping the colour reaction. The use of a 630 nm filter was used as the reference wavelength. […] Assay Cut-Off
Equally, pyrrolidinopentiothiophenone and mdpbp were assessed in the same run; and mdppp and α-pyrrolidinopropiophenone were assessed in the same run. […] The Reactant IC50s (i.e. ^2 in the table above) are the standard concentrations which produced 50% B/B0 in that run. The % CR (last column in the table above) is calculated with reference to the standard used in that particular run.

Antibodies in EP2626358 = conditions: immunoassay of EP2626358; cited from earlier work
[1] = unit not given, Table 11, in ng/mL

Structure (SMILES)	IC50 (Antibody-1B)	% Cross-Reactivity (Antibody-1B)	% Cross-Reactivity (α-PVP antibody)	% CR (α-PVP antibody; Table 11)	Reactant IC50 (α-PVP antibody; [1])	also measured
Cc1ccc(C(=O)C(C)N2CCCC2)cc1 (racemic) [4′-Methyl-α-pyrrolidinopropiophenone]	>10 ng/mL	<3.150%	1.8%	–	–	–
CC(C(=O)c1ccc2c(c1)OCO2)N1CCCC1 (stereo not drawn) [3′,4′-Methylenedioxy-α-pyrrolidinopropiophenone]	–	–	0.8%	0.8%	17.727	–
CCCCCCC(C(=O)c1ccc(F)cc1)N1CCCC1.Cl (stereo not drawn) [4-Fluoro-PV9 HCl, 1-(4-fluorophenyl)-2-(pyrrolidin-1-yl)octan-1-one, monohydrochloride]	–	–	3.2%	–	–	–
CNC(C)C(=O)c1ccc(F)cc1 (stereo not drawn) [4-Fluoromethcathinone, 4-fluoro-N-methylcathinone]	–	–	<1%	–	–	–
CCCCCC(C(=O)c1ccc(OC)cc1)N1CCCC1.Cl (stereo not drawn) [4-Methoxy-PV8 HCl, 1-(4-methoxyphenyl)-2-(pyrrolidin-1-yl)heptan-1-one, hydrochloride]	–	–	11.7%	–	–	–
CCCC(C(=O)c1ccc(OC)cc1)N1CCCC1 (stereo not drawn) [4-Methoxy-α-pyrrolidinopentiophenone, 4′-Methoxy-α-pyrrolidinopentiophenone]	0.233 ng/mL (≈ 0.891 nM)	135.193%	–	–	–	–
CCCCC(C(=O)c1ccc(C)cc1)N1CCCC1 (stereo not drawn) [4′-Methyl-α-pyrrilidinohexylphenone]	–	–	38.1%	–	–	–
CCC(C(=O)c1ccc(C)cc1)N1CCCC1 (stereo not drawn) [4′-Methyl-α-pyrrolidinobutiophenone]	–	–	23.2%	–	–	–
CCC(NC)C(=O)c1ccc2c(c1)OCO2 (stereo not drawn) [Butylone, 1-(1,3-benzodioxol-5-yl)-2-(methylamino)butan-1-one]	–	–	<1%	–	–	–
CCC(C(=O)c1ccc2c(c1)OCO2)N1CCCC1 (stereo not drawn) [MDPBP, 3′,4′-Methylenedioxy-α-pyrrolidinobutiophenone]	1.532 ng/mL (≈ 5.86 nM)	20.561%	17.2%	17.2%	1.044	–
CCCC(C(=O)c1ccc2c(c1)OCO2)N1CCCC1 (stereo not drawn) [MDPV, 3′,4′-Methylenedioxy-α-pyrrolidinopentiophenone]	0.176 ng/mL (≈ 0.639 nM)	178.977%	93.3%	93.3%	0.164	–
CNC(C)C(=O)c1ccc(C)cc1 (stereo not drawn) [Mephedrone]	–	–	<1%	–	–	–
CNC(C)C(=O)c1ccc(OC)cc1 (stereo not drawn) [Methedrone]	–	–	<1%	–	–	–
CNC(C)C(=O)c1ccc2c(c1)OCO2 (stereo not drawn) [Methylone]	–	–	<1%	–	–	–
CCCC(C(=O)c1ccc2ccccc2c1)N1CCCC1 (stereo not drawn) [Naphyrone, 1-(naphthalen-2-yl)-2-(pyrrolidin-1-yl)pentan-1-one]	0.221 ng/mL (≈ 0.785 nM)	142.534%	70.2%	70.2%	0.218	–
CCCC(NC)C(=O)c1ccc2c(c1)OCO2 (stereo not drawn) [Pentylone, 1-(1,3-benzodioxol-5-yl)-2-(methylamino)pentan-1-one]	–	–	<1%	–	–	–
CCCC(C(=O)c1ccc(C)cc1)N1CCCC1 (stereo not drawn) [Pyrovalerone, 4-Methyl-α-pyrrolidinopentiophenone]	0.168 ng/mL (≈ 0.685 nM)	187.500%	125.4%	125.4%	0.122	–
CCCC(C(=O)c1ccccc1)N1CCCC1 (stereo not drawn) [α-PVP, α-Pyrrolidinovalerophenone]	0.315 ng/mL (≈ 1.36 nM)	100%	100%	100%	0.153	IC50 (standard concentration which produces 50% B/B0) (Antibody-1B; standard α-PVP, Table 1): 0.315 ng/mL (≈ 1.36 nM); STD IC50 (α-PVP antibody; IC50 of the standard (alpha-pvp) in the same run as the reactant of the line, unit not given, Table 11, in ng/mL): 0.18 and 0.153 and 0.149; cross-reactivity (Antibodies in EP2626358): very low
CCCC(C(=O)c1cccs1)N1CCCC1 (stereo not drawn) [α-Pyrrolidinopentiothiophenone HCl, α-Pyrrolidinopentiothiophenone]	–	–	73.2%	73.2%	0.246	–
CC(C(=O)c1ccccc1)N1CCCC1 (stereo not drawn) [α-Pyrrolidinopropiophenone]	>10 ng/mL	<3.150%	0.8%	0.8%	18.744	–
